Key:
Assay in all cases: Growth inhibitory activity of compounds on BaF3 cell lines stably transfected with kinase (MTS, 48 h)
Assay type in all cases: cell-based
[1] = molecular target: T1, various mutants of kinase EGFR (BaF3 cell lines stably transfected with kinase) (Homo sapiens, UniProt P00533, T790M/C797S, form not given); conditions: BaF3 cells stably transfected with EGFR Δ19Del/T790M/C797S, read-out: IC50, growth inhibition, Δ19Del/T790M/C797S
T1 construct: other: BaF3 cells stably transfected with EGFR Δ19Del/T790M/C797S; MTS, 48; other: BaF3 cell line stably transfected with EGFR Δ19Del/T790M/C7
T1 sequence (P00533 with tags, fused parts or gaps DEL746-750/T790M/C797S, form open): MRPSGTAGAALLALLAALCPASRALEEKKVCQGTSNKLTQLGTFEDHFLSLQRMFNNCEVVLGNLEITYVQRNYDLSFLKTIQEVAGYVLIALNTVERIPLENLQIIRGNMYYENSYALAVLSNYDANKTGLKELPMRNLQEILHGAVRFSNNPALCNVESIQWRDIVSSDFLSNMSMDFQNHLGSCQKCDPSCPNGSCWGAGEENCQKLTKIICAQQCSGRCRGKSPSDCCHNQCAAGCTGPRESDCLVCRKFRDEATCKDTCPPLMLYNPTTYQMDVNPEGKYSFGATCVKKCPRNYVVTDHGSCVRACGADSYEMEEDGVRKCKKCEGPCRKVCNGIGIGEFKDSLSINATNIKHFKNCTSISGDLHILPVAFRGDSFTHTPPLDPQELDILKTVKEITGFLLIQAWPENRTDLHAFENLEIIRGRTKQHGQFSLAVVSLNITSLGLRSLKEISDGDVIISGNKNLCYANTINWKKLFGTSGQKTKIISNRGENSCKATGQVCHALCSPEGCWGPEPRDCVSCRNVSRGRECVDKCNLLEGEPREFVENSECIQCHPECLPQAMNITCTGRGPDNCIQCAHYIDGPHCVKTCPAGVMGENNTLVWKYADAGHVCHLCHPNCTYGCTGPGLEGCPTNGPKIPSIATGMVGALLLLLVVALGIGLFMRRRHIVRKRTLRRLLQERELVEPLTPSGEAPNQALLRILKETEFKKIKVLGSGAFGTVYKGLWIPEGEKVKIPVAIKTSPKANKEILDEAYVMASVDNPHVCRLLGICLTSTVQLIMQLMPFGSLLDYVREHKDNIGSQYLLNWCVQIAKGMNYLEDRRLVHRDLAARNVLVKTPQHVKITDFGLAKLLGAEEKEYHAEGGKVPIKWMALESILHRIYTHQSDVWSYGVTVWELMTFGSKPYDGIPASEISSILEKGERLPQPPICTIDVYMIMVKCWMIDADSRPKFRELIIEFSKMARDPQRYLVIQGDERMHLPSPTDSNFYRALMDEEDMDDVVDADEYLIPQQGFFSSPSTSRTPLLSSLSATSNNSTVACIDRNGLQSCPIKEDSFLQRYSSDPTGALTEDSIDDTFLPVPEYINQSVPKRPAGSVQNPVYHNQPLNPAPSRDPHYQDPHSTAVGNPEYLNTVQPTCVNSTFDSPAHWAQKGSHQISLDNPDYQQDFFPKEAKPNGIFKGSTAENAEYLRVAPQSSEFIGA
How it was run: (§1)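 First, cells were seeded and treated with an eight-point threefold dilution series starting at 10 µM (0.1% DMSO). After 48 h at 37 °C, MTS reagent was added for 1-4 h before absorbance at 490 nm. Inhibition rates gave the IC50.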

[2] = molecular target: T2, various mutants of kinase EGFR (BaF3 cell lines stably transfected with kinase) (Homo sapiens, UniProt P00533, T790M, form not given); conditions: BaF3 cells stably transfected with EGFR Δ19Del/T790M, read-out: IC50, growth inhibition, Δ19Del/T790M
T2 construct: other: BaF3 cells stably transfected with EGFR Δ19Del/T790M; MTS, 48 h; other: BaF3 cell line stably transfected with EGFR Δ19Del/T790M; MTS, 48
How it was run: as §1

[3] = molecular target: T3, various mutants of kinase EGFR (BaF3 cell lines stably transfected with kinase) (Homo sapiens, UniProt P00533, C797S/L858R/T790M); conditions: BaF3 cells stably transfected with EGFR L858R/T790M/C797S, read-out: IC50, growth inhibition, L858R/T790M/C797S
T3 construct: expressed in transfected cells; host or cells: BaF3
T3 sequence (P00533 25-1210 T790M/C797S/L858R): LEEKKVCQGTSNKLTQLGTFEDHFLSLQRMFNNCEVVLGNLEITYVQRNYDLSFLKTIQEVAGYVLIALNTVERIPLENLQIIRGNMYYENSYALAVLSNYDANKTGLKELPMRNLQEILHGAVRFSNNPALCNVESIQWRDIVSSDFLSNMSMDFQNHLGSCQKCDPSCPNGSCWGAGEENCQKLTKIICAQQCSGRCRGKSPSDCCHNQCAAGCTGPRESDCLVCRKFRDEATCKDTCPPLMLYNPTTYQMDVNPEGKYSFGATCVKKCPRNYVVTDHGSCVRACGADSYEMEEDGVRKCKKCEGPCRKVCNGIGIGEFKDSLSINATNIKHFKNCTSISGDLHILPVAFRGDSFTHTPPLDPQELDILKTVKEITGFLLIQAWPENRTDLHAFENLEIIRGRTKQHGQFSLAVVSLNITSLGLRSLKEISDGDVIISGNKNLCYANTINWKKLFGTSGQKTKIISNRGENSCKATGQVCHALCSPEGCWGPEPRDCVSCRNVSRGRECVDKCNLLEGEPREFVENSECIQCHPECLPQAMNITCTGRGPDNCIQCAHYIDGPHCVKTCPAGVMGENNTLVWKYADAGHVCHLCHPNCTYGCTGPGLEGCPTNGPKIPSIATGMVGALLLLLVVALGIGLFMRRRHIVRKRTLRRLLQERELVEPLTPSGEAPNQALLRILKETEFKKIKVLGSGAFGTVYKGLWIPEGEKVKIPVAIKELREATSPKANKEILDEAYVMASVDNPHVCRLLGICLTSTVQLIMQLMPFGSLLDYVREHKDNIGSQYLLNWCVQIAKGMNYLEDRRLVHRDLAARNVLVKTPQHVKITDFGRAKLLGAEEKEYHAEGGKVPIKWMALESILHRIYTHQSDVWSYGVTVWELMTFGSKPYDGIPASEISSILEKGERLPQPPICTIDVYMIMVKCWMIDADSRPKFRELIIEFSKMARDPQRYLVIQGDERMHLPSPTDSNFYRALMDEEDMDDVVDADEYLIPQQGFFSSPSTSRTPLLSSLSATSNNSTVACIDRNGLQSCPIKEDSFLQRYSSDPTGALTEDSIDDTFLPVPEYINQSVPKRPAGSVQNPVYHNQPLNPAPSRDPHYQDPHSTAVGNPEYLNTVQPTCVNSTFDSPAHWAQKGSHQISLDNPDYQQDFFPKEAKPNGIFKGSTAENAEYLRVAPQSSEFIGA
How it was run: as §1

[4] = molecular target: T4, various mutants of kinase EGFR (BaF3 cell lines stably transfected with kinase) (Homo sapiens, UniProt P00533, L858R/T790M); conditions: BaF3 cells stably transfected with EGFR L858R/T790M, read-out: IC50, growth inhibition, L858R/T790M
T4 construct: expressed in transfected cells; host or cells: BaF3
T4 sequence (P00533 25-1210 T790M/L858R): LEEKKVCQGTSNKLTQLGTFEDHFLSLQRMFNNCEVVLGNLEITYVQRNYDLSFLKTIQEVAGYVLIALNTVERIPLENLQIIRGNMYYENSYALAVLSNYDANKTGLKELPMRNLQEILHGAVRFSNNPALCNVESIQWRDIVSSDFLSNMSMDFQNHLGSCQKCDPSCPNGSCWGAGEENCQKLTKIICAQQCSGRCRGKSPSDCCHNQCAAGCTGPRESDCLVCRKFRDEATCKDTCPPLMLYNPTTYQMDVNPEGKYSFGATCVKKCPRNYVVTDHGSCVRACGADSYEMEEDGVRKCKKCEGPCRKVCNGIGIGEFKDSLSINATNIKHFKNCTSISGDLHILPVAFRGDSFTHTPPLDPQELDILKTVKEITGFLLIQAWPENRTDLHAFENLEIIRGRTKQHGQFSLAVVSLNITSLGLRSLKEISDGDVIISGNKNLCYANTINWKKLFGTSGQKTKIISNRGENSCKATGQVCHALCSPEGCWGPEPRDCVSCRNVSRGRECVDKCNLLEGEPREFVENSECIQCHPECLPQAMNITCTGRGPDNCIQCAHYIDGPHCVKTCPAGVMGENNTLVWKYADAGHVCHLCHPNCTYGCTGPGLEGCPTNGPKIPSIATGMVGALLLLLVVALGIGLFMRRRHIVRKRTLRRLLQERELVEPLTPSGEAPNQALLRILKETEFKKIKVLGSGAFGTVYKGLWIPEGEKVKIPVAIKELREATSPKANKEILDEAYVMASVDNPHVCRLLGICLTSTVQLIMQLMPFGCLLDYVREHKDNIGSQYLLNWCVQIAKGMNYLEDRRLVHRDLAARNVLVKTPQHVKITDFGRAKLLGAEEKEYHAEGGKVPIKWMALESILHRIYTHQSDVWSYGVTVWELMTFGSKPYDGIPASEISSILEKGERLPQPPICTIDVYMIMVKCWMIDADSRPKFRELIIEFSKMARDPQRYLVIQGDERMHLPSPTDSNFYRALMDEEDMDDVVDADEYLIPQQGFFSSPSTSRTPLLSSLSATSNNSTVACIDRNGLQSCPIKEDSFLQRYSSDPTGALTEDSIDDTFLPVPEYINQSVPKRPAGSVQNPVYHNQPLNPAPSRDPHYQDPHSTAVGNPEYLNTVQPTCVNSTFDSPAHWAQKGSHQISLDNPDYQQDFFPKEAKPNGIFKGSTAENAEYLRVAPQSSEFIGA
How it was run: as §1

[5] = molecular target: T5, various mutants of kinase EGFR (BaF3 cell lines stably transfected with kinase) (Homo sapiens, UniProt P00533); conditions: BaF3 cells stably transfected with EGFR Δ19Del, read-out: IC50, growth inhibition, Δ19Del
T5 construct: other: BaF3 cells stably transfected with EGFR Δ19Del; MTS, 48 h; other: BaF3 cell line stably transfected with EGFR Δ19Del
How it was run: as §1

[6] = molecular target: T6, various mutants of kinase EGFR (BaF3 cell lines stably transfected with kinase) (Homo sapiens, UniProt P00533, L858R); conditions: BaF3 cells stably transfected with EGFR L858R, read-out: IC50, growth inhibition, L858R
T6 construct: expressed in transfected cells; host or cells: BaF3
T6 sequence (P00533 25-1210 L858R): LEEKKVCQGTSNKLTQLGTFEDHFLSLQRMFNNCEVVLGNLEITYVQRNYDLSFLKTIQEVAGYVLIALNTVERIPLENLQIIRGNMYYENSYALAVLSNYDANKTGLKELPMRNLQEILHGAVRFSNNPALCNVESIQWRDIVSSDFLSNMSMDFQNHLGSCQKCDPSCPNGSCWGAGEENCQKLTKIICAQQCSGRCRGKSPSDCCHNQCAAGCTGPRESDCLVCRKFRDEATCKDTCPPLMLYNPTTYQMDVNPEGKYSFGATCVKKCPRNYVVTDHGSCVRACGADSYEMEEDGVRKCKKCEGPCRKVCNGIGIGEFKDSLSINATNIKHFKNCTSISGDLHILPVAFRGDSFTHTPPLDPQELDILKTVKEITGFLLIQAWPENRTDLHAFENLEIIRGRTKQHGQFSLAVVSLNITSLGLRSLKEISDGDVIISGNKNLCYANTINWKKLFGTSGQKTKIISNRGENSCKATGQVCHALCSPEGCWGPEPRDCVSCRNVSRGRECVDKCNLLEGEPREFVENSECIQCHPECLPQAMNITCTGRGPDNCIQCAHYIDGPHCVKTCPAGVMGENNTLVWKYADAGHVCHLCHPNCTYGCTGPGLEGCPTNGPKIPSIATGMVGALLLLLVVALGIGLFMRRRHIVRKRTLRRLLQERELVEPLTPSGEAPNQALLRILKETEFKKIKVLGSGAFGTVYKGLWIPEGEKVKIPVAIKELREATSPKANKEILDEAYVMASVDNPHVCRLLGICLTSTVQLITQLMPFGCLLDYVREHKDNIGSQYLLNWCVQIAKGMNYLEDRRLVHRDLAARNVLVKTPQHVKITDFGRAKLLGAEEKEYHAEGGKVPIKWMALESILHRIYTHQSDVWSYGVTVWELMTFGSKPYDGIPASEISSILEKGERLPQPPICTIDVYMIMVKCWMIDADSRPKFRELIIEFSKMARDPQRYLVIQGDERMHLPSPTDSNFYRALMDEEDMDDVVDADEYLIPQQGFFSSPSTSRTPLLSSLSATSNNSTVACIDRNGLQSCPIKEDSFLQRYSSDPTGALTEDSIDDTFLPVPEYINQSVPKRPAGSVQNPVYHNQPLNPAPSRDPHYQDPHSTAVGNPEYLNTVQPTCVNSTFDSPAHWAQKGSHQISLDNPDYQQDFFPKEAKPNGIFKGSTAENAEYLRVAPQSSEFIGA
How it was run: as §1

| SMILES | IC50 [1] [µM] | IC50 [2] [µM] | IC50 [3] [µM] | IC50 [4] [µM] | IC50 [5] [µM] | IC50 [6] [µM] |
| --- | --- | --- | --- | --- | --- | --- |
| COc1cc(N2CCC(N(C)C)C2)c(C)cc1Nc1ncc([N+](=O)[O-])c(Nc2ccc3nccnc3c2N(C)S(C)(=O)=O)n1 (stereo not drawn) [Compound I-195] | ≤ 0.05 | 0.05 to 0.5 | 0.05 to 0.5 | 0.05 to 0.5 | 0.05 to 0.5 | 0.05 to 0.5 |
| CCc1cc(Nc2ncc([N+](=O)[O-])c(Nc3ccc4nccnc4c3N(C)S(C)(=O)=O)n2)c(OC)cc1N1CCC(N(C)C)C1 (stereo not drawn) [Compound I-196] | ≤ 0.05 | 0.05 to 0.5 | 0.05 to 0.5 | 0.05 to 0.5 | 0.05 to 0.5 | 0.05 to 0.5 |
| COc1nc(N2CCC(N3CCN(C)CC3)CC2)ccc1Nc1ncc(C(F)(F)F)c(Nc2ccc3nccnc3c2N(C)S(C)(=O)=O)n1 [Compound I-197] | ≤ 0.05 | 0.05 to 0.5 | 0.05 to 0.5 | 0.05 to 0.5 | 0.05 to 0.5 | 0.05 to 0.5 |
| CCc1cc(Nc2ncc(C(F)(F)F)c(Nc3ccc4nccnc4c3N(C)S(C)(=O)=O)n2)c(OC)nc1N1CCC(N2CCN(C)CC2)CC1 [Compound I-199] | ≤ 0.05 | ≤ 0.05 | ≤ 0.05 | ≤ 0.05 | 0.05 to 0.5 | ≤ 0.05 |
| CN1CCN(C2CCN(c3ccc(Nc4ncc(C(F)(F)F)c(Nc5ccc6nccnc6c5N(C)S(C)(=O)=O)n4)c(OC(F)(F)F)c3)CC2)CC1 [Compound I-200] | 0.05 to 0.5 | 0.05 to 0.5 | 0.05 to 0.5 | 0.05 to 0.5 | 0.05 to 0.5 | 0.05 to 0.5 |
| CCc1cc(Nc2ncc(C(F)(F)F)c(Nc3ccc4nccnc4c3N(C)S(C)(=O)=O)n2)c(OC(F)(F)F)cc1N1CCC(N2CCN(C)CC2)CC1 [Compound I-201] | ≤ 0.05 | 0.05 to 0.5 | 0.05 to 0.5 | 0.05 to 0.5 | 0.05 to 0.5 | 0.05 to 0.5 |
| C=Cc1cc(Nc2ncc(C(F)(F)F)c(Nc3ccc4nccnc4c3N(C)S(C)(=O)=O)n2)c(OC(F)(F)F)cc1N1CCC(N2CCN(C)CC2)CC1 [Compound I-202] | ≤ 0.05 | ≤ 0.05 | 0.05 to 0.5 | ≤ 0.05 | 0.05 to 0.5 | 0.05 to 0.5 |
| COc1cc(N2CCC(N3CCN(C)CC3)CC2)c(CC2CC2)cc1Nc1ncc(C(F)(F)F)c(Nc2ccc3nccnc3c2N(C)S(C)(=O)=O)n1 [Compound I-203] | ≤ 0.05 | ≤ 0.05 | 0.05 to 0.5 | ≤ 0.05 | 0.05 to 0.5 | 0.05 to 0.5 |
| COc1cc(N2CCC(N3CCN(C)CC3)CC2)c(Cc2ccccc2)cc1Nc1ncc(C(F)(F)F)c(Nc2ccc3nccnc3c2N(C)S(C)(=O)=O)n1 [Compound I-204] | 0.5 to 2.5 | 0.5 to 2.5 | 0.5 to 2.5 | 0.5 to 2.5 | 0.5 to 2.5 | 0.5 to 2.5 |
| COc1cc(N2CCC(N(C)C)CC2)c(C)cc1Nc1ncc(C(F)(F)F)c(Nc2ccc3nccnc3c2N(C)S(C)(=O)=O)n1 [Compound I-205] | ≤ 0.05 | ≤ 0.05 | ≤ 0.05 | ≤ 0.05 | ≤ 0.05 | ≤ 0.05 |
| CCc1cc(Nc2ncc(C(F)(F)F)c(Nc3ccc4nccnc4c3N(C)S(C)(=O)=O)n2)c(OC)cc1N1CCC(N(C)C)CC1 [Compound I-206] | ≤ 0.05 | ≤ 0.05 | ≤ 0.05 | ≤ 0.05 | ≤ 0.05 | ≤ 0.05 |
| COc1cc(N2CCN(C)CC2)c(C)cc1Nc1ncc(C(F)(F)F)c(Nc2ccc3nccnc3c2N(C)S(C)(=O)=O)n1 [Compound I-207] | ≤ 0.05 | ≤ 0.05 | ≤ 0.05 | ≤ 0.05 | 0.05 to 0.5 | 0.05 to 0.5 |
| CCc1cc(Nc2ncc(C(F)(F)F)c(Nc3ccc4nccnc4c3N(C)S(C)(=O)=O)n2)c(OC)cc1N1CCN(C)CC1 [Compound I-208] | ≤ 0.05 | ≤ 0.05 | ≤ 0.05 | ≤ 0.05 | 0.05 to 0.5 | ≤ 0.05 |

Source: patent US20230310428A1, “EGFR INHIBITOR AND PREPARATION METHOD AND USE THEREOF” (HONGYUN BIOTECH CO., LTD., priority 2020, published 2023)
